From DBAASP
Converted amounts (≈) assume the structure as drawn. “And” between values parts separate entries of the source, which are not always exact repeats. Equal values may be shown once.

Columns and labels:
Assay in all cases: ≥ marks a high value that may be exact or a test limit, other limits are often not marked, values filed in µg/mL are converted to µM
[1] = system: Mycobacterium tuberculosis CAS3
[2] = system: Mycobacterium tuberculosis H37Rv
[3] = system: Mycobacterium tuberculosis WXY
[4] = system: Bacillus subtilis 168
[5] = system: Candida albicans ATCC 10231
[6] = system: Candida glabrata ATCC 2001
[7] = system: Candida tropicalis ATCC 13803
[8] = system: Escherichia coli ATCC 25922
[9] = system: Klebsiella pneumoniae ATCC 13883
[10] = system: Pseudomonas aeruginosa PAO1
[11] = system: Staphylococcus aureus MU50
[12] = system: Staphylococcus aureus Newman
[13] = system: Staphylococcus aureus UAMS-1
[14] = system: Staphylococcus aureus USA 200
[15] = system: Staphylococcus aureus USA 400
[16] = system: Staphylococcus epidermidis 1457
[17] = system: Pseudomonas aeruginosa ATCC 27853
[18] = system: Pseudomonas aeruginosa
[19] = system: Staphylococcus aureus ATCC 29213
[20] = system: Staphylococcus pseudintermedius
[21] = system: Candida albicans ATCC 90029
[22] = system: Candida albicans
[23] = system: Escherichia coli
[24] = system: Staphylococcus aureus
[25] = system: Candida krusei CGMCC 2.1857
[26] = system: Candida parapsilosis CGMCC 2.3989
[27] = system: Candida tropicalis CGMCC 2.1975
[28] = system: Escherichia coli 1005
[29] = system: Klebsiella pneumoniae
[30] = system: Salmonella enterica subsp. enterica serovar Pullorum ATCC 7913
[31] = system: Salmonella enterica subsp. enterica serovar Typhimurium ATCC 14028
[32] = system: Staphylococcus aureus ATCC 25923
[33] = system: Staphylococcus aureus ATCC 43300
[34] = system: Staphylococcus epidermidis ATCC 12228
[35] = system: Streptococcus pneumoniae
[36] = system: Acinetobacter baumannii
[37] = system: Escherichia coli K88
[38] = system: Escherichia coli K99
[39] = system: Escherichia coli UB1005
[40] = system: Pseudomonas aeruginosa CICC 21625
[41] = system: Pseudomonas aeruginosa CICC 21630
[42] = system: Salmonella enterica subsp. enterica serovar Pullorum C79-13
[43] = system: Salmonella enterica subsp. enterica serovar Typhimurium C77-31

Compound: CC(C)C[C@H](NC(=O)[C@H](C)NC(=O)[C@H](C)NC(=O)[C@H](CCCN=C(N)N)NC(=O)[C@H](CO)NC(=O)[C@H](CC(C)C)NC(=O)[C@H](CCCCN)NC(=O)[C@H](CCCCN)NC(=O)[C@H](CCCCN)NC(=O)[C@H](C)N)C(=O)N[C@@H](CCCN=C(N)N)C(=O)N[C@@H](C)C(=O)N[C@@H](C)C(=O)N[C@H](C(=O)N[C@@H](CCCCN)C(=O)O)C(C)C [AKKKLSRAALRAAVK]
- MIC [1]: ≥ 93.1 µM
- MIC [2]: ≥ 93.1 µM
- MIC [3]: ≥ 93.1 µM

Compound: CC[C@H](C)[C@H](NC(=O)[C@H](CCCCN)NC(=O)CNC(=O)[C@H](CC(C)C)NC(=O)[C@@H](NC(=O)[C@H](CO)NC(=O)[C@H](CCCCN)NC(=O)[C@H](CC(C)C)NC(=O)[C@H](Cc1ccccc1)NC(=O)[C@@H]1CCCN1C(=O)[C@H](CC(C)C)NC(=O)[C@@H](N)Cc1ccccc1)[C@@H](C)CC)C(=O)N[C@@H](CC(C)C)C(N)=O [FLPFLKSILGKIL]
- MIC [4]: 17.7 µM (≈ 26.3 µg/mL)
- MIC [5]: 12.5 µM (≈ 18.6 µg/mL)
- MIC [6]: 12.5 µM (≈ 18.6 µg/mL)
- MIC [7]: 1.6 µM (≈ 2.38 µg/mL)
- MIC [8]: > 50 µM
- MIC [9]: ≥ 50 µM
- MIC [10]: > 50 µM
- MIC [11]: 3.1 µM (≈ 4.61 µg/mL)
- MIC [12]: 1.6 µM (≈ 2.38 µg/mL)
- MIC [13]: 25 µM (≈ 37.2 µg/mL)
- MIC [14]: 3.1 µM (≈ 4.61 µg/mL)
- MIC [15]: 1.56 µM (≈ 2.32 µg/mL)
- MIC [16]: 1.6 µM (≈ 2.38 µg/mL)

Compound: CC[C@H](C)[C@H](NC(=O)[C@@H]1CCCN1C(C)=O)C(=O)N[C@@H](Cc1cnc[nH]1)C(=O)N[C@@H](CCCN=C(N)N)C(=O)N[C@@H](CCCN=C(N)N)C(=O)N[C@H](C(=O)N1CCC[C@H]1C(=O)N1CCC[C@H]1C(=O)N[C@@H](CCCN=C(N)N)C(=O)N[C@@H](Cc1c[nH]c2ccccc12)C(=O)N1CCC[C@H]1C(=O)N[C@@H](CCCN=C(N)N)C(=O)N[C@@H](CC(C)C)C(=O)N[C@@H](CCCCN)C(=O)N[C@@H](CCCN=C(N)N)C(=O)N[C@@H](CCCN=C(N)N)C(=O)N[C@@H](Cc1c[nH]c2ccccc12)C(N)=O)[C@@H](C)CC [PIHRRIPPRWPRLKRRW]
- MIC [17]: 27.6 µM (≈ 65.1 µg/mL)
- MIC [18]: 55.2 µM (≈ 130 µg/mL)
- MIC [19]: 27.6 µM (≈ 65.1 µg/mL)
- MIC [20]: 27.6 µM (≈ 65.1 µg/mL)

Compound: CC(C)C[C@H](NC(=O)[C@H](Cc1cnc[nH]1)NC(=O)[C@H](CO)NC(=O)[C@H](C)NC(=O)[C@H](CC(C)C)NC(=O)[C@@H](NC(=O)[C@@H](NC(=O)[C@H](CC(C)C)NC(=O)[C@H](CC(C)C)NC(=O)[C@H](CO)NC(=O)[C@H](Cc1cnc[nH]1)NC(=O)[C@H](CO)NC(=O)[C@H](CC(C)C)NC(=O)[C@H](CC(C)C)NC(=O)[C@H](CCCCN)NC(=O)[C@H](Cc1ccccc1)NC(=O)[C@H](CCCN=C(N)N)NC(=O)[C@@H](N)CCCN=C(N)N)C(C)C)[C@@H](C)O)C(=O)O [RRFKLLSHSLLVTLASHL]
- MIC [21]: 5.98 µM (≈ 12.5 µg/mL)
- MIC [22]: 2.99 µM (≈ 6.25 µg/mL)
- MIC [8]: 1.49 µM (≈ 3.12 µg/mL)
- MIC [23]: 1.49 µM (≈ 3.12 µg/mL)
- MIC [18]: 2.99 µM (≈ 6.25 µg/mL)
- MIC [19]: 2.99 µM (≈ 6.25 µg/mL)
- MIC [24]: 1.49 µM (≈ 3.12 µg/mL)

Compound: NC(=O)[C@H](CCCN=C(N)N)NC(=O)[C@H](Cc1c[nH]c2ccccc12)NC(=O)[C@H](CCCN=C(N)N)NC(=O)[C@H](Cc1c[nH]c2ccccc12)NC(=O)[C@H](Cc1c[nH]c2ccccc12)NC(=O)[C@H](Cc1c[nH]c2ccccc12)NC(=O)[C@H](CCCN=C(N)N)NC(=O)[C@H](Cc1c[nH]c2ccccc12)NC(=O)[C@@H](N)CCCN=C(N)N [RWRWWWRWR]
- MIC [22]: 2.83 µM (≈ 4.45 µg/mL)
- MIC [25]: 4 µM (≈ 6.29 µg/mL)
- MIC [26]: 16 µM (≈ 25.2 µg/mL)
- MIC [27]: 2 µM (≈ 3.15 µg/mL)
- MIC [28]: 2 µM (≈ 3.15 µg/mL)
- MIC [8]: 4 µM and > 2 µM
- MIC [23]: 8 µM (≈ 12.6 µg/mL)
- MIC [29]: 32 µM (≈ 50.3 µg/mL)
- MIC [10]: 16 µM (≈ 25.2 µg/mL)
- MIC [18]: 16 µM (≈ 25.2 µg/mL)
- MIC [30]: 2 µM (≈ 3.15 µg/mL)
- MIC [31]: 4 µM (≈ 6.29 µg/mL)
- MIC [32]: 4 µM (≈ 6.29 µg/mL)
- MIC [19]: 4 µM (≈ 6.29 µg/mL)
- MIC [33]: 2 µM (≈ 3.15 µg/mL)
- MIC [24]: 8 µM (≈ 12.6 µg/mL)
- MIC [34]: 4 µM (≈ 6.29 µg/mL)
- MIC [35]: ≥ 32 µM

Compound: CC(C)[C@H](N)C(=O)N[C@@H](CCCCN)C(=O)N1CCC[C@H]1C(=O)N[C@H](C(=O)N[C@H](C(=O)N[C@@H](CCCCN)C(=O)N1CCC[C@H]1C(=O)N[C@H](C(=O)N[C@H](C(=O)N[C@@H](CCCCN)C(=O)N1CCC[C@H]1C(=O)N[C@H](C(=O)N[C@H](C(=O)N[C@@H](CCCCN)C(=O)N1CCC[C@H]1C(=O)N[C@H](C(=O)N[C@H](C(=O)N[C@@H](CCCCN)C(=O)N1CCC[C@H]1C(=O)N[C@H](C(=O)N[C@H](C(=O)N[C@@H](CCCCN)C(=O)N1CCC[C@H]1C(=O)N[C@H](C(=O)N[C@H](C(=O)N[C@@H](CCCCN)C(=O)N1CCC[C@H]1C(=O)N[C@H](C(N)=O)C(C)C)C(C)C)C(C)C)C(C)C)C(C)C)C(C)C)C(C)C)C(C)C)C(C)C)C(C)C)C(C)C)C(C)C)C(C)C [VKPVVKPVVKPVVKPVVKPVVKPVVKPV]
- MIC [36]: ≥ 64 µM
- MIC [8]: > 64 µM
- MIC [37]: ≥ 64 µM
- MIC [38]: ≥ 64 µM
- MIC [39]: ≥ 64 µM
- MIC [23]: > 64 µM
- MIC [29]: > 64 µM
- MIC [17]: > 64 µM
- MIC [40]: ≥ 64 µM
- MIC [41]: ≥ 64 µM
- MIC [10]: > 64 µM
- MIC [18]: > 64 µM
- MIC [42]: ≥ 64 µM
- MIC [31]: > 64 µM
- MIC [43]: ≥ 64 µM
